These results are taken from patent US8735425B2, “Tetrahydroisoquinoline derivative” (Daiichi Sankyo Company, Limited, priority 2008, dated 2014).

The structures appear in SMILES notation.

For assay [1], the target named is T1, DGAT1 enzyme (Homo sapiens, UniProt O75907).
T1 construct: made in house
T1 sequence (O75907 1-488): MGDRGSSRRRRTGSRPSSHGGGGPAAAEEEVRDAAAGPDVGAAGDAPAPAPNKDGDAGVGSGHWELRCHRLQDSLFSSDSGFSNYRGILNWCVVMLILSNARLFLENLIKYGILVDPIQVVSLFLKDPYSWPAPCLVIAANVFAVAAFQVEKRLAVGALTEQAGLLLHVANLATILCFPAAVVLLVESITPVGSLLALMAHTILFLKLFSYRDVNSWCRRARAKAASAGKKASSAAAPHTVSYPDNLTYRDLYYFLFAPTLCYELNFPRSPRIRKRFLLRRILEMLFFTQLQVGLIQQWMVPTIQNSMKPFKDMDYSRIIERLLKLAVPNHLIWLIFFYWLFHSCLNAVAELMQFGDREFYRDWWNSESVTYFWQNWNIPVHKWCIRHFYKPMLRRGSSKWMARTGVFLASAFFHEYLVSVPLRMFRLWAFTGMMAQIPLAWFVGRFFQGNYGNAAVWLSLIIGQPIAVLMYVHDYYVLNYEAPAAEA
The assay is described as follows: DGAT1 inhibitory activity test. The class given is biochemical. The following applies: test compound concentration of 0.05 μg/ml; read-out: Inhibitory Rate. An outline of the steps:
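Reaction at 23° C for 30 min in 175 mM Tris-HCl pH 8.0, 8 mM MgCl2, 1 mg/ml BSA, 0.5% Triton X-100 with 0.3 mM 1,2-dioleoyl-sn-glycerol and 10 μM [14C]-oleoyl-CoA. Triglyceride extracted into heptane, separated by TLC, radioactivity quantified; % inhibition versus vehicle control, 0-min background subtracted.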

Assay [2] has as its system Male C57BL/6N mice. The assay can be described thus: Triglyceride absorption suppression after fat loading (in vivo DGAT1 inhibitory effect). Particulars: Mus musculus, po; dose of 10 mg/kg or lower, orally administered, mice fasted overnight, plasma triglyceride after fat loading; read-out: Triglyceride absorption suppressive activity. An outline of the steps: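 Overnight-fasted male C57BL/6N mice dosed orally with compound (1 to 10 mg/kg in 0.5% methylcellulose), then given Pluronic-F127 1 g/kg i.p. and an oral 20% Intralipid load. Plasma triglyceride measured 1 to 4 h later. Absorption suppression (%) calculated against water-loaded and fat-loaded vehicle groups.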

Take `O=C(O)C[C@H]1CC[C@H](OC(=O)N2CCc3cc(NC(=O)Nc4ccc(Cl)nc4)ccc3C2)CC1` [Example 92, trans-6-[3-(6-chloro-pyridin-3-yl)-ureido]-3,4-dihydro-1H-isoquinoline-2-carboxylic acid 4-carboxymethyl-cyclohexyl ester]: the inhibition at 0.05 µg/mL in assay [1] was not below 50%. Also, in assay [2], the inhibition in vivo at up to 10 mg/kg is not below 60%.

As for `Cc1cnc(NC(=O)Nc2ccc3c(c2)CCN(C(=O)O[C@H]2CC[C@H](CC(=O)O)CC2)C3)s1` [Example 95, trans-6-[3-(5-methyl-thiazol-2-yl)-ureido]-3,4-dihydro-1H-isoquinoline-2-carboxylic acid 4-carboxymethyl-cyclohexyl ester], the inhibition at 0.05 µg/mL in assay [1] is not below 50%. The inhibition in vivo at up to 10 mg/kg in assay [2] is not below 60%.

For the molecule `Cc1cc(NC(=O)Nc2ccc3c(c2)CCN(C(=O)O[C@H]2CC[C@H](CC(=O)O)CC2)C3)no1` [Example 97, trans-6-[3-(5-methyl-isoxazol-3-yl)-ureido]-3,4-dihydro-1H-isoquinoline-2-carboxylic acid 4-carboxymethyl-cyclohexyl ester], in assay [1], the inhibition at 0.05 µg/mL is not below 50%. For the same molecule, the inhibition in vivo at up to 10 mg/kg in assay [2] was not below 60%.

Regarding `C[C@@H]1C[C@H](CC(=O)O)CC[C@H]1OC(=O)N1CCc2cc(NC(=O)Nc3cccc(OC(F)(F)F)c3)ccc2C1` [Example 102, 6-[3-(3-trifluoromethoxy-phenyl)-ureido]-3,4-dihydro-1H-isoquinoline-2-carboxylic acidt-4-carboxymethyl-t-2-methyl-r-1-cyclohexyl ester], in assay [1], the inhibition at 0.05 µg/mL was not below 50%. Further, the inhibition in vivo at up to 10 mg/kg in assay [2] is not below 60%.

As to `CC(C(=O)O)[C@H]1CC[C@H](OC(=O)N2CCc3cc(NC(=O)Nc4ccccc4F)ccc3C2)CC1` (stereo partly drawn) [Example 103, trans-6-[3-(2-fluoro-phenyl)-ureido]-3,4-dihydro-1H-isoquinoline-2-carboxylic acid 4-(1-carboxy-ethyl)-cyclohexyl ester], in assay [1], the inhibition at 0.05 µg/mL was not below 50%. Further, the inhibition in vivo at up to 10 mg/kg in assay [2] is not below 60%.

`COc1cccc(NC(=O)Nc2ccc3c(c2)CCN(C(=O)O[C@H]2CC[C@H](C(C)C(=O)O)CC2)C3)c1` (stereo partly drawn) [Example 104, trans-6-[3-(3-methoxy-phenyl)-ureido]-3,4-dihydro-1H-isoquinoline-2-carboxylic acid 4-(1-carboxy-ethyl)-cyclohexyl ester]: in assay [1], the inhibition at 0.05 µg/mL is not below 50%. Also, the inhibition in vivo at up to 10 mg/kg in assay [2] is not below 60%.

In the case of `CC(C(=O)O)[C@H]1CC[C@H](OC(=O)N2CCc3cc(NC(=O)Nc4ccccc4)ccc3C2)CC1` (stereo partly drawn) [Example 105, trans-6-(3-phenyl-ureido)-3,4-dihydro-1H-isoquinoline-2-carboxylic acid 4-(1-carboxy-ethyl)-cyclohexyl ester], in assay [1], the inhibition at 0.05 µg/mL is not below 50%. Moreover, the inhibition in vivo at up to 10 mg/kg in assay [2] was not below 60%.

As for `CC(C(=O)O)C1CCC(CC(=O)N2CCc3cc(NC(=O)Nc4ccccc4F)ccc3C2)CC1` (stereo not drawn) [Example 107, 2-[4-(2-{6-[3-(2-fluoro-phenyl)-ureido]-3,4-dihydro-1H-isoquinolin-2-yl}-2-oxo-ethyl)-cyclohexyl]-propionic acid], in assay [1], the inhibition at 0.05 µg/mL is not below 50%. Further, the inhibition in vivo at up to 10 mg/kg in assay [2] is not below 60%.

Consider `CN(C(=O)N1CCc2cc(NC(=O)Nc3ccccc3F)ccc2C1)C1CCC(CC(=O)O)CC1` (stereo not drawn) [Example 108, [4-({6-[3-(2-fluoro-phenyl)-ureido]-3,4-dihydro-1H-isoquinoline-2-carbonyl}-methyl-amino)-cyclohexyl]-acetic acid], for which the inhibition at 0.05 µg/mL in assay [1] was not below 50%. Further, in assay [2], the inhibition in vivo at up to 10 mg/kg was not below 60%.
